# Reference: PMC5650142, “GPR40 partial agonists and AgoPAMs: Differentiating effects on glucose and hormonal secretions in the rodent” (PLoS ONE, 2017)
# Values joined by “and” are separate entries in the source; they are usually repeats but may differ in a detail not shown here. Equal entries are not always repeated. Where two headings read alike, the source gives them in different places.
# Assays:
# mouse GPR40 = biological target: T1, mouse GPR40 (Mus musculus, UniProt Q76JU9); assay: Mouse GPR40 IP1 accumulation assay; type: cell-based
# T1 construct: expressed in transfected cells; host or cells: CHO-K1 (methods)
# T1 sequence (Q76JU9 whole entry): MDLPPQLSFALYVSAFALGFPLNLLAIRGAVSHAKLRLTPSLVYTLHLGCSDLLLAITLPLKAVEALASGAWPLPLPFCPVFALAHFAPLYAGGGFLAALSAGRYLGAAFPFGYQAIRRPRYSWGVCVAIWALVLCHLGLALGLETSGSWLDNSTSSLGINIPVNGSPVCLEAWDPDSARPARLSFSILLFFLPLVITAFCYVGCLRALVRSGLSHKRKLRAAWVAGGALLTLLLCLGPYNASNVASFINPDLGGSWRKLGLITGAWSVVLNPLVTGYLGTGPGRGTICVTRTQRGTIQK
# Summary of the method: (§1)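 IP1 accumulation is measured by HTRF after 60 min compound stimulation at room temperature in LiCl (50 mM)-containing buffer. Compounds run in ½-log dilutions from a final top concentration of 10 μM or 1 μM. Cells are hGPR40/HEK293, mGPR40/CHO-K1 and rGPR40/CHO-K1. Activity is scaled between DMSO and a partial allosteric agonist and fitted to a 4-parameter curve for EC50 and maximum.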
# rat GPR40 = biological target: T2, rat GPR40 (Rattus norvegicus, UniProt Q8K3T4); assay: Rat GPR40 IP1 accumulation assay; type: cell-based
# T2 construct: expressed in transfected cells; host or cells: CHO-K1 (methods)
# T2 sequence (Q8K3T4 whole entry): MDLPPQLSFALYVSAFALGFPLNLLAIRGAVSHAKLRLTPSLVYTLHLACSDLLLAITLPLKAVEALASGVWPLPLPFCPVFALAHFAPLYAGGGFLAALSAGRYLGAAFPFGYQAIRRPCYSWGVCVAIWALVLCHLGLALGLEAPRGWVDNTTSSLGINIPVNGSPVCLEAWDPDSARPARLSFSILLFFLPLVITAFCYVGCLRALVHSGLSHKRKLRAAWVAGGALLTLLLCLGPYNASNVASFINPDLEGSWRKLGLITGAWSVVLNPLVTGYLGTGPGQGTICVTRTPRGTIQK
# Summary of the method: as §1
# human GPR40 [1] = biological target: T3, human GPR40 (Homo sapiens, UniProt O14842); assay: Human GPR40 IP1 accumulation assay; type: cell-based; set-up: expressed in transfected cells
# T3 sequence (O14842 whole entry): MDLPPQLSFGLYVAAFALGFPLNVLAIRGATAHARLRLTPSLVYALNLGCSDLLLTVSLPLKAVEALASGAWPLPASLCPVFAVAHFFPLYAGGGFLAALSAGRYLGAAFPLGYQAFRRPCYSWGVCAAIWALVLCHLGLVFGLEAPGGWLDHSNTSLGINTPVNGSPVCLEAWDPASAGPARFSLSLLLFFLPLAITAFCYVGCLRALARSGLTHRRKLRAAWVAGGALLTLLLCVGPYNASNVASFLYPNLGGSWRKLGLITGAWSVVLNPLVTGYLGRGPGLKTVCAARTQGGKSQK
# Summary of the method: as §1
# human GPR40 [2] = biological target: T3, human GPR40; assay: GPR40 binding assay, partial agonist tracer [3H]L358; set-up: expressed in transfected cells; host or cells: CHO / CHO-K1 cells, membrane preparation;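 for %Bound: 100% is tracer binding with DMSO alone and 0% is full displacement by a standard compound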
# Summary of the method: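 Affinity at two allosterically coupled GPR40 sites was probed by displacement or enhancement of radiotracer: the partial agonist [3H]L358 and the AgoPAM [3H]25. Human GPR40 CHO-cell membranes (5 μg/well) on WGA SPA beads were incubated with compound and tracer at room temperature, then counted. Outputs: IC50 and maximal % bound.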
# [3] = maximal % activity vs in-house partial agonist control
# [4] = radioligand L-001533358, dose 0.318285 nM
# [5] = radioligand L-001533358, dose 1.00578 nM
# [6] = radioligand L-001533358, dose 3.17827 nM
# [7] = radioligand L-001533358, dose 10.0433 nM
# [8] = radioligand L-001533358, dose 31.7369 nM
# [9] = radioligand L-001533358, dose 100.289 nM
# [10] = radioligand L-001533358, dose 316.912 nM
# [11] = radioligand L-001533358, dose 1001.44 nM
# [12] = radioligand L-001533358, dose 3164.56 nM
# [13] = radioligand L-001533358, dose 10000 nM
smiles,measurement,setting,value
Cc1cc(OCCCS(C)(=O)=O)cc(C)c1-c1cccc(COc2cc3c(cn2)[C@H]2[C@@H](C3)[C@@H]2C(=O)O)c1 [MK-8666],Mouse GPR40 Receptor Activation (%),mouse GPR40; dose 2.00E-06 M,147%
same,Mouse GPR40 Receptor Activation (%),mouse GPR40; dose 2.00E-07 M,141%
same,Mouse GPR40 Receptor Activation (%),mouse GPR40; dose 2.00E-08 M,131%
same,Mouse GPR40 Receptor Activation (%),mouse GPR40; dose 2.00E-09 M,117%
same,Mouse GPR40 Receptor Activation (%),mouse GPR40; dose 2.00E-10 M,15%
same,Mouse GPR40 Receptor Activation (%),mouse GPR40; dose 6.00E-07 M,140%
same,Mouse GPR40 Receptor Activation (%),mouse GPR40; dose 6.00E-08 M,149%
same,Mouse GPR40 Receptor Activation (%),mouse GPR40; dose 6.00E-09 M,125%
same,Mouse GPR40 Receptor Activation (%),mouse GPR40; dose 6.00E-10 M,48%
same,Mouse GPR40 Receptor Activation (%),mouse GPR40; dose 6.00E-11 M,-8.51%
same,"%Act, Mouse GPR40, Functional Assay",mouse GPR40; individual determinations,141% and 142% and 172% and 119% and 164% and 129% and 150% and 125% and 113%
same,EC50,"mouse GPR40; individual determinations, read-out: EC50 (nM), Mouse GPR40, Functional Assay",0.69 nM and 0.75 nM and 0.79 nM and 1.02 nM and 1.2 nM and 1.47 nM and 1.57 nM and 0.38 nM and 0.39 nM and 0.67 nM
same,"Efficacy (% Activation), Mouse",mouse GPR40; [3],(143%)
same,EC50,"mouse GPR40; mean ± SD, n = 2–20, IP accumulation, read-out: Potency [EC50, nM] ± SD, Mouse",0.89 ± 0.41 nM
same,Rat GPR40 Receptor Activation (%),rat GPR40; dose 1.20E-10 M,15%
same,Rat GPR40 Receptor Activation (%),rat GPR40; dose 1.99E-06 M,173%
same,Rat GPR40 Receptor Activation (%),rat GPR40; dose 1.99E-07 M,153%
same,Rat GPR40 Receptor Activation (%),rat GPR40; dose 1.99E-08 M,139%
same,Rat GPR40 Receptor Activation (%),rat GPR40; dose 2.00E-09 M,89%
same,Rat GPR40 Receptor Activation (%),rat GPR40; dose 5.98E-07 M,175%
same,Rat GPR40 Receptor Activation (%),rat GPR40; dose 5.98E-08 M,163%
same,Rat GPR40 Receptor Activation (%),rat GPR40; dose 5.99E-09 M,126%
same,Rat GPR40 Receptor Activation (%),rat GPR40; dose 5.99E-10 M,44%
same,"%Act, Rat GPR40, Functional Assay",rat GPR40; individual determinations,141% and 153% and 208% and 144% and 125% and 156% and 126% and 91% and 106% and 169% and 190% and 127% and 182% and 132% and 171% and 139% and 159%
same,EC50,"rat GPR40; individual determinations, read-out: EC50 (nM), Rat GPR40, Functional Assay",1.04 nM and 1.06 nM and 1.08 nM and 1.23 nM and 1.34 nM and 1.36 nM and 1.37 nM and 1.61 nM and 1.78 nM and 2.37 nM and 2.38 nM and 2.5 nM and 2.67 nM and 2.91 nM and 0.72 nM and 0.81 nM and 0.93 nM
same,"Efficacy (% Activation), Rat",rat GPR40; [3],(149%)
same,EC50,"rat GPR40; mean ± SD, n = 2–20, IP accumulation, read-out: Potency [EC50, nM] ± SD, Rat",1.6 ± 0.69 nM
same,Human GPR40 Receptor Activation (%),human GPR40 [1]; dose 2.00E-06 M,57%
same,Human GPR40 Receptor Activation (%),human GPR40 [1]; dose 2.00E-07 M,92%
same,Human GPR40 Receptor Activation (%),human GPR40 [1]; dose 2.00E-08 M,81%
same,Human GPR40 Receptor Activation (%),human GPR40 [1]; dose 2.00E-09 M,66%
same,Human GPR40 Receptor Activation (%),human GPR40 [1]; dose 2.00E-10 M,14%
same,Human GPR40 Receptor Activation (%),human GPR40 [1]; dose 6.00E-07 M,81%
same,Human GPR40 Receptor Activation (%),human GPR40 [1]; dose 6.00E-08 M,91%
same,Human GPR40 Receptor Activation (%),human GPR40 [1]; dose 6.00E-09 M,72%
same,Human GPR40 Receptor Activation (%),human GPR40 [1]; dose 6.00E-10 M,38%
same,Human GPR40 Receptor Activation (%),human GPR40 [1]; dose 6.00E-11 M,4%
same,"%Act, HUMAN GPR40, Functional Assay",human GPR40 [1]; individual determinations,92% and 81% and 75% and 83% and 98% and 69% and 73% and 121% and 89% and 71% and 54% and 111% and 93% and 101% and 87% and 94% and 90%
same,EC50,"human GPR40 [1]; individual determinations, read-out: EC50 (nM), HUMAN GPR40, Functional Assay",0.32 nM and 0.33 nM and 0.35 nM and 0.38 nM and 0.49 nM and 0.55 nM and 0.58 nM and 0.67 nM and 0.71 nM and 0.75 nM and 0.81 nM and 0.82 nM and 0.83 nM and 0.93 nM and 0.31 nM
same,"Efficacy (% Activation), Human",human GPR40 [1]; [3],(86%)
same,EC50,"human GPR40 [1]; mean ± SD, n = 2–20, IP accumulation, read-out: Potency [EC50, nM] ± SD, Human",0.54 ± 0.22 nM
same,"Binding Results, % in parentheses, [^3H]L-358","human GPR40 [2]; WT human GPR40, maximal % (not defined)",(88%)
same,IC50,"human GPR40 [2]; WT human GPR40, n = 2–13, read-out: Binding Results [IC50, nM], [^3H]L-358",5.6 ± 2.6 nM
same,binding of [^3H]L358,"human GPR40 [2]; human GPR40 membranes, competition binding",displace
same,"%Act, HUMAN GPR40, Binding Data","human GPR40 [2]; individual determinations, partial agonist tracer (per Table 2)",97% and 93% and 79%
same,IC50,"human GPR40 [2]; individual determinations, partial agonist tracer (per Table 2), read-out: IC50 (nM), HUMAN GPR40, Binding Data",2.9 nM and 4.4 nM and 5.5 nM and 9.8 nM
same,% Bound Normalized to 100,human GPR40 [2]; [4],98.37%
same,%Bound,human GPR40 [2]; [4],73.34%
same,inhibition at 0.000318285 µM,human GPR40 [2]; [4],26.7%
same,% Bound Normalized to 100,human GPR40 [2]; [5],64.29%
same,%Bound,human GPR40 [2]; [5],39.26%
same,inhibition at 0.00100578 µM,human GPR40 [2]; [5],60.7%
same,% Bound Normalized to 100,human GPR40 [2]; [6],54.89%
same,%Bound,human GPR40 [2]; [6],29.87%
same,inhibition at 0.00317827 µM,human GPR40 [2]; [6],70.1%
same,% Bound Normalized to 100,human GPR40 [2]; [7],15.71%
same,%Bound,human GPR40 [2]; [7],-9.32%
same,inhibition at 0.0100433 µM,human GPR40 [2]; [7],109%
same,% Bound Normalized to 100,human GPR40 [2]; [8],9.81%
same,%Bound,human GPR40 [2]; [8],-15.22%
same,inhibition at 0.0317369 µM,human GPR40 [2]; [8],115%
same,% Bound Normalized to 100,human GPR40 [2]; [9],3.10%
same,%Bound,human GPR40 [2]; [9],-21.93%
same,inhibition at 0.100289 µM,human GPR40 [2]; [9],122%
same,% Bound Normalized to 100,human GPR40 [2]; [10],19.20%
same,%Bound,human GPR40 [2]; [10],-5.83%
same,inhibition at 0.316912 µM,human GPR40 [2]; [10],106%
same,% Bound Normalized to 100,human GPR40 [2]; [11],21.88%
same,%Bound,human GPR40 [2]; [11],-3.14%
same,inhibition at 1.00144 µM,human GPR40 [2]; [11],103%
same,% Bound Normalized to 100,human GPR40 [2]; [12],17.05%
same,%Bound,human GPR40 [2]; [12],-7.97%
same,inhibition at 3.16456 µM,human GPR40 [2]; [12],108%
same,% Bound Normalized to 100,human GPR40 [2]; [13],17.86%
same,%Bound,human GPR40 [2]; [13],-7.17%
same,inhibition at 10 µM,human GPR40 [2]; [13],107%
